pEC50: −log10 of the molar value.

The subject of the experiment is CHIKV 181/clone25. The experiment is described as follows: CHIKV cytopathic effect (CPE) protection assay in Vero cells. Particulars: Chikungunya virus; CHIKV 181/clone25, Vero cells, MOI=0.01, 48 hrs, protection from CPE (crystal violet, absorbance 595nm). It is filed as cell-based.

As to `O=C(CC1Sc2ncccc2NC1=O)NCc1cccc(Cl)c1` (centres unmarked) [Example 54, N-(3-chlorobenzyl)-2-(2-oxo-2,3-dihydro-1H-pyrido[2,3-b][1,4]thiazin-3-yl)acetamide], the pEC50 was under 4.00.

Consider `CC(C)NC(=O)CC1Sc2ncccc2N(C)C1=O` (centres unmarked) [Example 10, N-isopropyl-2-(1-methyl-2-oxo-2,3-dihydro-1H-pyrido[2,3-b][1,4]thiazin-3-yl)acetamide], for which the pEC50 was under 4.00. The figure for `O=C(CC1Sc2ccncc2NC1=O)NCC1CCCCC1` (centres unmarked) [Example 84, N-(cyclohexylmethyl)-2-(3-oxo-3,4-dihydro-2H-pyrido[4,3-b][1,4]thiazin-2-yl)acetamide] is under 4.00; for `O=C(CC1CNc2cccnc2S1)NCC1CCCCC1` (centres unmarked) [Example 92, N-(cyclohexylmethyl)-2-(2,3-dihydro-1H-pyrido[2,3-b][1,4]thiazin-3-yl)acetamide] it is 4.30 to 5.00.

In turn, `O=C(CC1Sc2ccccc2NC1=O)NCC1CCCCC1` (centres unmarked) [Example 59, N-(cyclohexylmethyl)-2-(3-oxo-3,4-dihydro-2H-benzo[b][1,4]thiazin-2-yl)acetamide] showed a negative-log EC50 (pEC50) of under 4.00. The figure for `O=C(CC1Sc2ncccc2NC1=O)NCC1CCC(F)(F)CC1` (centres unmarked) [Example 60, N-((4,4-difluorocyclohexyl)methyl)-2-(2-oxo-2,3-dihydro-1H-pyrido[2,3-b][1,4]thiazin-3-yl)acetamide] is 4.30 to 5.00. The figure for `CN1C(=O)C(CC(=O)NCc2ccncc2)Sc2ncccc21` (centres unmarked) [Example 14, 2-(1-methyl-2-oxo-2,3-dihydro-1H-pyrido[2,3-b][1,4]thiazin-3-yl)-N-(pyridin-4-ylmethyl)acetamide] is under 4.00; for `O=C(CC1Cc2ncccc2NC1=O)NCC1CCCCC1` (centres unmarked) [Example 88, N-(cyclohexylmethyl)-2-(2-oxo-1,2,3,4-tetrahydro-1,5-naphthyridin-3-yl)acetamide] it is 4.30 to 5.00; for `CN1C(=O)C(CC(=O)NCc2ccccn2)Sc2ncccc21` (centres unmarked) [Example 12, 2-(1-methyl-2-oxo-2,3-dihydro-1H-pyrido[2,3-b][1,4]thiazin-3-yl)-N-(pyridin-2-ylmethyl)acetamide] it is under 4.00. The figure for `COCC1(CNC(=O)CC2Sc3ncccc3NC2=O)CCCCC1` (centres unmarked) [Example 82, N-((1-(methoxymethyl)cyclohexyl)meth-yl)-2-(2-oxo-2,3-dihydro-1H-pyrido[2,3-b][1,4]thiazin-3-yl)acetamide] is 4.00 to 4.30.

`CN1C(=O)[C@H](CC(=O)NCC2CCCCC2)Sc2ncccc21` [Example 7, (S)-N-(cyclohexylmethyl)-2-(1-methyl-2-oxo-2,3-dihydro-1H-pyrido[2,3-b][1,4]thiazin-3-yl)acetamide] showed a pEC50 of 4.30 to 5.00. As for `O=C(CC1Sc2ncccc2NC1=O)NCc1ccc(Cl)c(Cl)c1` (centres unmarked) [Example 49, N-(3,4-dichlorobenzyl)-2-(2-oxo-2,3-dihydro-1H-pyrido[2,3-b][1,4]thiazin-3-yl)acetamide], the pEC50 is under 4.00. To `O=C(CC1Sc2ncccc2NC1=O)NCc1cc(F)c(F)c(F)c1` (centres unmarked) [Example 51, 2-(2-oxo-2,3-dihydro-1H-pyrido[2,3-b][1,4]thiazin-3-yl)-N-(3,4,5-trifluorobenzyl)acetamide] belongs 4.00 to 4.30; to `COCCCNC(=O)CC1Sc2ncccc2N(C)C1=O` (centres unmarked) [Example 21, N-(3-methoxypropyl)-2-(1-methyl-2-oxo-2,3-dihydro-1H-pyrido[2,3-b][1,4]thiazin-3-yl)acetamide], under 4.00; to `O=C(O)CC1Sc2ncccc2NC1=O` (centres unmarked) [Example 5, 2-(2-oxo-2,3-dihydro-1H-pyrido[2,3-b][1,4]thiazin-3-yl)acetic acid], under 4.00. To `CN1C(=O)C(CC(=O)N2CCCCCC2)Sc2ncccc21` (centres unmarked) [Example 31, 3-(2-(azepan-1-yl)-2-oxoethyl)-1-methyl-1H-pyrido[2,3-b][1,4]thiazin-2(3H)-one] belongs under 4.00; to `CN1C(=O)C(CC(=O)NCc2ccc(F)cc2)Sc2ncccc21` (centres unmarked) [Example 24, N-(4-fluorobenzyl)-2-(1-methyl-2-oxo-2,3-dihydro-1H-pyrido[2,3-b][1,4]thiazin-3-yl)acetamide], over 5.00.

With `O=C(CC1Sc2ncccc2NC1=O)NCc1cccc(F)c1` (centres unmarked) [Example 55, N-(3-fluorobenzyl)-2-(2-oxo-2,3-dihydro-1H-pyrido[2,3-b][1,4]thiazin-3-yl)acetamide], the pEC50 is under 4.00. To `O=C(CC1Sc2ncccc2NC1=O)NCC1CCOCC1` (centres unmarked) [Example 48, 2-(2-oxo-2,3-dihydro-1H-pyrido[2,3-b][1,4]thiazin-3-yl)-N-((tetrahydro-2H-pyran-4-yl)methyl)acetamide] belongs under 4.00; to `CN1C(=O)C(CC(=O)NC2CCCCC2)Sc2ncccc21` (centres unmarked) [Example 19, N-cyclohexyl-2-(1-methyl-2-oxo-2,3-dihydro-1H-pyrido[2,3-b][1,4]thiazin-3-yl)acetamide], under 4.00; to `O=C(CC1Sc2ncccc2NC1=O)NCCCC(F)(F)F` (centres unmarked) [Example 72, 2-(2-oxo-2,3-dihydro-1H-pyrido[2,3-b][1,4]thiazin-3-yl)-N-(4,4,4-trifluorobutyl)acetamide], under 4.00. To `Cc1ccc(CNC(=O)CC2Sc3ncccc3N(C)C2=O)o1` (centres unmarked) [Example 33, 2-(1-methyl-2-oxo-2,3-dihydro-1H-pyrido[2,3-b][1,4]thiazin-3-yl)-N-((5-methylfuran-2-yl)methyl)acetamide] belongs under 4.00. `CCN1C(=O)C(CC(=O)NCc2ccncc2)Sc2ncccc21` (centres unmarked) [Example 42, 2-(1-ethyl-2-oxo-2,3-dihydro-1H-pyrido[2,3-b][1,4]thiazin-3-yl)-N-(pyridin-4-ylmethyl)acetamide] gave a pEC50 of under 4.00. As for `CC(C)CCNC(=O)CC1Sc2ncccc2N(C)C1=O` (centres unmarked) [Example 29, N-isopentyl-2-(1-methyl-2-oxo-2,3-dihydro-1H-pyrido[2,3-b][1,4]thiazin-3-yl)acetamide], the pEC50 is over 5.00. To `O=C(CC1Sc2ncccc2NC1=O)NCC1CCSCC1` (centres unmarked) [Example 47, 2-(2-oxo-2,3-dihydro-1H-pyrido[2,3-b][1,4]thiazin-3-yl)-N-((tetrahydro-2H-thiopyran-4-yl)methyl)acetamide] belongs 4.30 to 5.00; to `COC(=O)CC1Sc2ncccc2NC1=O` (centres unmarked) [Example 3, methyl 2-(2-oxo-2,3-dihydro-1H-pyrido[2,3-b][1,4]thiazin-3-yl)acetate], under 4.00. Regarding `O=C(CC1Sc2ncccc2NC1=O)NCc1ccc(F)cc1` (centres unmarked) [Example 56, N-(4-fluorobenzyl)-2-(2-oxo-2,3-dihydro-1H-pyrido[2,3-b][1,4]thiazin-3-yl)acetamide], the pEC50 was over 5.00. To `O=C(CC1Sc2ncccc2NC1=O)NCC1(O)CCCCC1` (centres unmarked) [Example 77, N-((1-hydroxycyclohexyl)methyl)-2-(2-oxo-2,3-dihydro-1H-pyrido[2,3-b][1,4]thiazin-3-yl)acetamide] belongs over 5.00; to `CC(C)N1CCN(C(=O)CC2Sc3ncccc3N(C)C2=O)CC1` (centres unmarked) [Example 32, 3-(2-(4-isopropylpiperazin-1-yl)-2-oxoethyl)-1-methyl-1H-pyrido[2,3-b][1,4]thiazin-2(3H)-one], under 4.00. The figure for `O=C(CC1Sc2ncccc2NC1=O)NCCC(F)(F)F` (centres unmarked) [Example 74, 2-(2-oxo-2,3-dihydro-1H-pyrido[2,3-b][1,4]thiazin-3-yl)-N-(3,3,3-trifluoropropyl)acetamide] is under 4.00; for `O=C(CC1Sc2ncccc2NC1=O)NCCC1CCCCC1` (centres unmarked) [Example 58, N-(2-cyclohexylethyl)-2-(2-oxo-2,3-dihydro-1H-pyrido[2,3-b][1,4]thiazin-3-yl)acetamide] it is 4.30 to 5.00; for `CCC1(CNC(=O)CC2Sc3ncccc3NC2=O)CCCCC1` (centres unmarked) [Example 76, N-((1-ethylcyclohexyl)methyl)-2-(2-oxo-2,3-dihydro-1H-pyrido[2,3-b][1,4]thiazin-3-yl)acetamide] it is over 5.00. To `CN1C(=O)C(CC(=O)NC2CCCC2)Sc2ncccc21` (centres unmarked) [Example 22, N-cyclopentyl-2-(1-methyl-2-oxo-2,3-dihydro-1H-pyrido[2,3-b][1,4]thiazin-3-yl)acetamide] belongs 4.00 to 4.30; to `CCN1C(=O)C(CC(=O)NCC2CC2)Sc2ncccc21` (centres unmarked) [Example 46, N-(cyclopropylmethyl)-2-(1-ethyl-2-oxo-2,3-dihydro-1H-pyrido[2,3-b][1,4]thiazin-3-yl)acetamide], under 4.00. In turn, `O=C(CC1Sc2ncccc2NC1=O)NCc1ccc(F)c(F)c1` (centres unmarked) [Example 50, N-(3,4-difluorobenzyl)-2-(2-oxo-2,3-dihydro-1H-pyrido[2,3-b][1,4]thiazin-3-yl)acetamide] had a pEC50 of 4.30 to 5.00.

`CCN1CCN(C(=O)CC2Sc3ncccc3N(C)C2=O)CC1` (centres unmarked) [Example 11, 3-(2-(4-ethylpiperazin-1-yl)-2-oxoethyl)-1-methyl-1H-pyrido[2,3-b][1,4]thiazin-2(3H)-one]: the pEC50 was under 4.00. The compound `CC(NC(=O)CC1Sc2ncccc2N(C)C1=O)c1cccnc1` (centres unmarked) [Example 39, 2-(1-methyl-2-oxo-2,3-dihydro-1H-pyrido[2,3-b][1,4]thiazin-3-yl)-N-(1-(pyridin-3-yl)ethyl)acetamide] had a pEC50 of under 4.00. To `CN1CCN(C(=O)CC2Sc3ncccc3N(C)C2=O)CC1` (centres unmarked) [Example 8, 1-methyl-3-(2-(4-methylpiperazin-1-yl)-2-oxoethyl)-1H-pyrido[2,3-b][1,4]thiazin-2(3H)-one] belongs under 4.00. To `O=C(CC1Sc2ncccc2NC1=O)NCC1=CCCCC1` (centres unmarked) [Example 85, N-(cyclohex-1-en-1-ylmethyl)-2-(2-oxo-2,3-dihydro-1H-pyrido[2,3-b][1,4]thiazin-3-yl)acetamide] belongs 4.30 to 5.00; to `CN1C(=O)C(CC(=O)NCc2ccco2)Sc2ncccc21` (centres unmarked) [Example 30, N-(furan-2-ylmethyl)-2-(1-methyl-2-oxo-2,3-dihydro-1H-pyrido[2,3-b][1,4]thiazin-3-yl)acetamide], under 4.00; to `NC1(CNC(=O)CC2Sc3ncccc3NC2=O)CCCCC1` (centres unmarked) [Example 80, N-((1-aminocyclohexyl)methyl)-2-(2-oxo-2,3-dihydro-1H-pyrido[2,3-b][1,4]thiazin-3-yl)acetamide], under 4.00.

For the origin of these results see patent publication US20220233549A1, “METHOD FOR ALPHAVIRUS INHIBITION” (priority 2019, published 2022).
